Structures can show the parent of a compound that is named as a salt.
What was measured:
CD-1 mice [1] = assay: Light dark box; format: in vivo; settings: 8 and 15 d post-injection; diazepam 1 mg/kg 30 min prior
CD-1 mice [2] = assay: Elevated-plus maze; format: in vivo
CD-1 mice [3] = assay: Sucrose consumption test; settings: fluoxetine 10 mg/kg, vs saline-treated controls
CD-1 mice [4] = assay: Tail suspension test; format: in vivo; settings: pilot studies, fluoxetine 10 mg/kg; control 6.9 ± 0.7 N
CD-1 mice [5] = assay: Forced swim test; format: in vivo
μ-receptors = assay: Isolated guinea-pig ileum, DAMGO concentration-response curves; settings: agonist at maximal doses
human κ-receptor = human κ-receptor (Homo sapiens, UniProt P41145); assay: [3H]-diprenorphine competitive binding assay, CHO-κ cell membranes; settings: from Ki values, Table 1
κ-receptors [6] = molecular target: κ-receptors (Cavia porcellus, UniProt P41144); assay: Isolated guinea-pig ileum, U50,488 concentration-response curves
rat = settings: 20mg/kg; ref Wiley et al., 2009; cited from earlier work
rats = settings: ref Wiley et al., 2009; cited from earlier work
Wistar rats = assay: κ-agonist; format: in vivo; settings: 1 mg/kg
CD-1 mice [7] = assay: Warm water tail-withdrawal test, block of U50,488-induced antinociception; format: in vivo; settings: U50,488 10 mg/kg, single injection
κ-receptors [8] = settings: single injection, ref Endoh et al., 1992, Jones and Holtzman; cited from earlier work
δ-receptor = δ-receptor (Rattus norvegicus, UniProt P33533); assay: [3H]-diprenorphine competitive binding assay, C6-δ cell membranes
[9] = diazepam 1 mg/kg 30 min prior to test, each test day

In the case of `CN1C(=O)CN=C(c2ccccc2)c2cc(Cl)ccc21` [diazepam], the “LDB time spent in the lit compartment” value (CD-1 mice [1]) is reported as “significantly different from saline treated controls”, the “EPM entries into the open arms” value (CD-1 mice [2]; [9]) is reported as “significantly increased” and the “EPM time spent in the open arms” value (CD-1 mice [2]; [9]) is reported as “significantly increased”.

In the case of `CNCCC(Oc1ccc(C(F)(F)F)cc1)c1ccccc1` (centres unmarked) [fluoxetine, fluoxetine hydrochloride], the “increase in sucrose consumption” value (CD-1 mice [3]) is reported as 40%, the TST average force (CD-1 mice [4]) is reported as 7.7 ± 0.5 N and the “FST time spent immobile” value (CD-1 mice [5]; fluoxetine 10 mg/kg 30 min prior, days 6 and 13) is reported as “decreased the time spent immobile”.

With DAMGO the “inhibition of electrically-evoked twitches” value (μ-receptors) was ~ 90%.

With `NC(N)=Nc1ccc2[nH]c3c(c2c1)C[C@@]1(O)[C@H]2Cc4ccc(O)c5c4[C@@]1(CCN2CC1CC1)[C@H]3O5` [GNTI, 5’-guanidinonaltrindole] the “κ-selectivity vs. δ” value (human κ-receptor) was roughly 4.

In the case of `Oc1ccc2c3c1O[C@H]1c4[nH]c5c(c4C[C@@]4(O)[C@@H](C2)N(CC2CC2)CC[C@]314)C[C@@]1(O)[C@H]2Cc3ccc(O)c4c3[C@@]1(CCN2CC1CC1)[C@H]5O4` [norBNI, Norbinaltorphimine], the “reversibility of κ-antagonist effect on washout” value (κ-receptors [6]) is reported as “reversed on washout”, the “effect on U50,488 Emax” value (κ-receptors [6]; increasing antagonist concentrations) is reported as “without significant affect on Emax” and the “pA2 Schild plot (+ 95% CI), κ” value (κ-receptors [6]; vs U50,488, n=4 tissues) is reported as 8.30. The “duration of antidepressant-like effects in the rat FST” value (rat) was “up to 4 wks post-injection”, the “effect on sucrose (0.5%) consumption” value (rats) was “had no effect on sucrose (0.5%) consumption” and the “reversal of the effects of U50,488 on sucrose consumption” value (rats) was “did reverse the effects of U50,488”. For the same compound, the “reduction of U50,488-evoked diuresis” value (Wistar rats; 8 d post-treatment) was “about 30%”, the “reduction of U50,488-evoked diuresis” value (Wistar rats; 15 d post-treatment) was “maintained at 15 d post-treatment” and the “effect on antinociceptive effects of U50,488 (overall)” value (CD-1 mice [7]) was “significantly reduced the antinociceptive effects of U50,488”. For the same compound, the “time maximal levels maintained” value (κ-receptors [8]) was 7 to 10 days, the “time of peak effects post-administration” value (κ-receptors [8]) was ~ 24 h and the “time of returning to control levels” value (κ-receptors [8]) was 3–4 weeks. The “FST time spent immobile” value (CD-1 mice [5]; 6 and 13 d post-injection of antagonist) was “significantly decreased the time spent immobile”, the “behavioural effects in the FST still apparent, time post-injection” value (CD-1 mice [5]; single injection) was “up to 13 days post-injection” and the Ki (δ-receptor) was 460 ± 90 pM. For the same compound, the “EPM number of entries into the open arms” value (CD-1 mice [2]; 7 d post-injection) was “significantly increased”, the “EPM time spent in the open arms” value (CD-1 mice [2]; 7 d post-injection) was “significantly increased the time spent” and the “EPM time spent in the open arms” value (CD-1 mice [2]; 14 d post-injection, 1 and 10 mg/kg) was “significantly increased the time spent in the open arms”.
